Consider 19 compounds from patent US20230295103A1 (priority 2020, published 2023).

≈ marks a conversion by molar mass, not a printed value.

The subject of one series is B. pseudomallei. Briefly: microbe, parasite or virus in culture. It counts as cell-based. The following applies: Burkholderia pseudomallei, read-out: Minimal Inhibitory Concentration (MIC).
Series [1] has as its system human cells A498, BEAS-2B, Caco-2, HaCaT, HepG2, HUVEC, IMR90, N87.
Series [2] has as its system large panel of bacteria including Gram+ and Gram- bacteria and Mycobacterium as well as fungi associated to plant infection. It counts as cell-based.
Another series relates to B. cepacia. The experiment in a line: microbe, parasite or virus in culture. It counts as cell-based. The following applies: Burkholderia cepacia, read-out: Minimal Inhibitory Concentration (MIC).
Series [3] has as its system E. coli (ATCC 8739), B. subtilis (ATCC 6633), P. aeruginosa (ATCC 9027), S. aureus (ATCC 6538P), H. pylori (ATCC43504), C. albicans (ATCC 200498). It is filed as cell-based.
Series [4] concerns Pseudomonas syringae (DSM 10604). Briefly: microbe, parasite or virus in culture. It is filed as cell-based. The following applies: DSM10604, read-out: Minimal Inhibitory Concentration (MIC).
Series [5] has as its system Streptomyces roietensis (DSM 101729). The experiment in a line: microbe, parasite or virus in culture. It counts as cell-based. The following applies: DSM101729, read-out: Minimal Inhibitory Concentration (MIC).
The test system of a further series is B. mallei. Briefly: microbe, parasite or virus in culture. It is filed as cell-based. The following applies: Burkholderia mallei, read-out: Minimal Inhibitory Concentration (MIC).
Another series deals with Phoma medicaginis. The following applies: cited from earlier work.
In series [6] the test system is human liver cell line HepG2 (ATCC HB-8065).
Series [7] has the same test system. Briefly: cells. The following applies: HepG2, 48 h, read-out: IC50 on the viability of HepG2 cells.
For the next series, the system named is Erwina cacticida. The following applies: cited from earlier work.
The subject of series [8] is P. aeruginosa (ATCC 9027). It counts as cell-based, Pseudomonas aeruginosa.

As to `COc1ccc(/C=C2\Oc3cc(N)ccc3C2=O)cc1` [C11, (Z)-6-amino-2-(4-methoxybenzylidene)benzofuran-3(2H)-one], the MIC in the series with B. pseudomallei lay in the range of 1.5 to 12.5 µM (≈ 0.401 to 3.34 µg/mL); in the series on B. cepacia, 3.12 to 12.5 µM (≈ 0.834 to 3.34 µg/mL); in series [4] it was 1.5 to 3.12 µM (≈ 0.401 to 0.834 µg/mL); in series [5], 6.25 to 12.5 µM (≈ 1.67 to 3.34 µg/mL); in the series with B. mallei, 1.5 to 12.5 µM (≈ 0.401 to 3.34 µg/mL). Moreover, the “Therapeutic index (TI) or safe factor (SF)” value (“Therapeutic index” for short) in series [1] was 38-4017. For the same compound, in [1], the “mean of TI/SF” value stood at 355. For the same compound, the “antimicrobial activity, spectrum” value in series [2] is “confirmed the activity”. Moreover, the “antimicrobial activity on tested strains (ranking)” value (from here on “antimicrobial activity … (ranking)”) in series [3] is listed as “the more active”.

In the case of `CC(=O)Nc1ccc2c(c1)C(=O)/C(=C/c1ccc(OC(C)C)cc1)O2` [B5, (Z)-N-(2-(4-isopropoxybenzylidene)-3-oxo-2,3-dihydrobenzofuran-5-yl)acetamide], the MIC with B. pseudomallei lay within 1.5 to 12.5 µM (≈ 0.506 to 4.22 µg/mL); in the series with B. cepacia, 3.12 to 12.5 µM (≈ 1.05 to 4.22 µg/mL); in series [4], 1.5 to 3.12 µM (≈ 0.506 to 1.05 µg/mL); in series [5], 6.25 to 12.5 µM (≈ 2.11 to 4.22 µg/mL); with B. mallei it was 1.5 to 12.5 µM (≈ 0.506 to 4.22 µg/mL). For the same compound, the “Therapeutic index” value in series [1] was 38-4017. Moreover, the “mean of TI/SF” value in series [1] is listed as 103. In addition, the “antimicrobial activity, spectrum” value in series [2] is reported as “confirmed the activity”. The “antimicrobial activity … (ranking)” value in series [3] is on record as “the more active”.

For hispidol-4′-O-β-D-glucoside, in the series on Phoma medicaginis, the “inhibition of fungal pathogen” value was “inhibit”.

As for `Nc1ccc2c(c1)C(=O)/C(=C/c1cccc(Oc3ccccc3)c1)O2` [B1, (Z)-5-amino-2-(3-phenoxybenzylidene)benzofuran-3(2H)-one], the MIC in the series on B. pseudomallei lay within 1.5 to 12.5 µM (≈ 0.494 to 4.12 µg/mL); with B. cepacia, 3.12 to 12.5 µM (≈ 1.03 to 4.12 µg/mL); in series [4], 1.5 to 3.12 µM (≈ 0.494 to 1.03 µg/mL); in series [5], 6.25 to 12.5 µM (≈ 2.06 to 4.12 µg/mL); in the series with B. mallei it was 1.5 to 12.5 µM (≈ 0.494 to 4.12 µg/mL).

For `O=C1/C(=C/c2ccc(OCc3ccccc3)cc2OCc2ccccc2)Oc2ccccc21` [C12, (Z)-2-(2,4-bis(benzyloxy)benzylidene)benzofuran-3(2H)-one], the MIC lay within 1.5 to 12.5 µM (≈ 0.652 to 5.43 µg/mL) in the series on B. pseudomallei, 3.12 to 12.5 µM (≈ 1.36 to 5.43 µg/mL) with B. cepacia and 1.5 to 12.5 µM (≈ 0.652 to 5.43 µg/mL) in the series on B. mallei. Further, the “Therapeutic index” value in [1] is listed as 38-4017. Also, the “mean of TI/SF” value in [1] is recorded as 1169. Further, the “antimicrobial activity, spectrum” value in series [2] is recorded as “confirmed the activity”. Besides, the “antimicrobial activity … (ranking)” value in series [3] was “the more active”.

For the compound `CC(=O)Nc1ccc2c(c1)C(=O)/C(=C/c1cccc(OCc3ccccc3)c1)O2` [A7, (Z)-N-(2-(3-(benzyloxy)benzylidene)-3-oxo-2,3-dihydrobenzofuran-5-yl)acetamide], the MIC in the series with B. pseudomallei lay within 1.5 to 12.5 µM (≈ 0.578 to 4.82 µg/mL); in the series with B. cepacia it was 3.12 to 12.5 µM (≈ 1.2 to 4.82 µg/mL); in [4] it was 1.5 to 3.12 µM (≈ 0.578 to 1.2 µg/mL); in [5], 6.25 to 12.5 µM (≈ 2.41 to 4.82 µg/mL); with B. mallei, 1.5 to 12.5 µM (≈ 0.578 to 4.82 µg/mL). For the same compound, the “Therapeutic index” value in [1] is listed as 38-4017. For the same compound, the “mean of TI/SF” value in series [1] was found to be 370. Also, the “antimicrobial activity, spectrum” value in series [2] is listed as “confirmed the activity”. Moreover, the “antimicrobial activity … (ranking)” value in series [3] is listed as “the more active”.

For the compound `O=C(O)c1ccc2c(c1)C(=O)/C(=C/c1ccc(OCc3ccccc3)c(OCc3ccccc3)c1)O2` [MR1065, (Z)-2-(3,4-bis(benzyloxy)benzylidene)-3-oxo-2,3-dihydrobenzofuran-5-carboxylic acid], in [6], the “Therapeutic index” value is listed as 712.82.

For the compound `CC(=O)Nc1ccc2c(c1)C(=O)/C(=C/c1ccc(OCc3ccccc3)c(OCc3ccccc3)c1)O2` [AD-1-49, (Z)-N-(2-(3,4-bis(benzyloxy)benzylidene)-3-oxo-2,3-dihydrobenzofuran-5-yl)acetamide], in [7], the IC50 was over 250 µM.

On to `CC(=O)Nc1ccc2c(c1)C(=O)/C(=C/c1ccc(C(=O)O)cc1)O2` [C4, (Z)-4-((5-acetamido-3-oxobenzofuran-2(3H)-ylidene)methyl)benzoic acid], for which the MIC in the series with B. pseudomallei and in the series with B. mallei was 1.5 to 12.5 µM (≈ 0.485 to 4.04 µg/mL) in each case.

With `CN(C)c1ccc(/C=C2\Oc3ccc(C(=O)O)cc3C2=O)cc1` [AD-1-62, (2Z)-2-[4-(dimethylamino)benzylidene]-3-oxo-2,3-dihydro-1-benzofuran-5-carboxylic acid], the IC50 in [7] was over 250 µM.

Turning to cephalocerone, the growth inhibition result in the series with Erwina cacticida is “inhibit the growth”.

`COc1cccc(/C=C2\Oc3ccc(C(=O)O)cc3C2=O)c1` [AD-1-61, (2Z)-2-(3-methoxybenzylidene)-3-oxo-2,3-dihydro-1-benzofuran-5-carboxylic acid]: the IC50 in series [7] was over 250 µM.

Regarding `O=C(O)CCCCCOc1ccc(/C=C2\Oc3ccccc3C2=O)cc1` [MR1076, (Z)-6-(4-((3-oxobenzofuran-2(3H)-ylidene)methyl)phenoxy)hexanoic acid], the antimicrobial activity entry in series [8] is given as “active”. For the same compound, the IC50 in [7] is over 250 µM.

In turn, `COc1cc(/C=C2\Oc3ccc(NC(C)=O)cc3C2=O)cc(OC)c1OC` [D1, (Z)-N-(3-oxo-2-(3,4,5-trimethoxybenzylidene)-2,3-dihydrobenzofuran-5-yl)acetamide] yielded a melting point of 254 °C. In addition, the MIC with B. pseudomallei is 1.5 to 12.5 µM (≈ 0.554 to 4.62 µg/mL). The MIC in the series with B. cepacia fell in the range of 3.12 to 12.5 µM (≈ 1.15 to 4.62 µg/mL). Besides, the MIC with B. mallei lay in the range of 1.5 to 12.5 µM (≈ 0.554 to 4.62 µg/mL).

In the case of `COc1ccc(/C=C2\Oc3ccccc3C2=O)cc1` [D10, (Z)-2-(4-methoxybenzylidene)benzofuran-3(2H)-one], the MIC with B. pseudomallei lay within 1.5 to 12.5 µM (≈ 0.378 to 3.15 µg/mL); in the series on B. cepacia, 3.12 to 12.5 µM (≈ 0.787 to 3.15 µg/mL); in [4], 1.5 to 3.12 µM (≈ 0.378 to 0.787 µg/mL); in [5], 6.25 to 12.5 µM (≈ 1.58 to 3.15 µg/mL); in the series on B. mallei, 1.5 to 12.5 µM (≈ 0.378 to 3.15 µg/mL).

In the case of `O=C1/C(=C/c2ccc(Oc3ccc4oc(-c5ccccc5)cc(=O)c4c3)cc2)Oc2ccccc21` [E5, (Z)-6-(4-((3-oxobenzofuran-2(3H)-ylidene)methyl)phenoxy)-2-phenyl-4H-chromen-4-one], in series [1], the “Therapeutic index” value was 38-4017 and the “mean of TI/SF” value turned out to be 852. Also, the “antimicrobial activity, spectrum” value in [2] was “confirmed the activity”. The “antimicrobial activity … (ranking)” value in [3] is reported as “the more active”. Besides, the MIC in series [4] lay in the range of 1.5 to 3.12 µM (≈ 0.688 to 1.43 µg/mL). Besides, the MIC in series [5] was 6.25 to 12.5 µM (≈ 2.87 to 5.73 µg/mL).

As to `CC(=O)Nc1ccc2c(c1)C(=O)/C(=C/c1ccccc1)O2`, the melting point is 241 °C.

Take hispidol: the “inhibition of fungal pathogen” value in the series with Phoma medicaginis is “inhibit”.

As for `COc1c(C)c(O)c(C)c2c1C(=O)/C(=C/c1ccccc1)O2` [C10, (Z)-2-benzylidene-6-hydroxy-4-methoxy-5,7-dimethylbenzofuran-3(2H)-one], the MIC in the series on B. pseudomallei and with B. mallei was 1.5 to 12.5 µM (≈ 0.444 to 3.7 µg/mL) in each case.
